Measured values as given in patent US10738028B2, “Spiro three-membered ring, spiro five-membered ring peptide deformylase inhibitor and use thereof in antibacteria and anti-tumor” (priority 2016, dated 2020).
In brackets after ≈: the same amount, converted by molar mass. Read-outs that look alike come from different tables or passages of the source.

What was measured:
Format in all cases: cell-based
[1] = test system: Enterococcus faecalis (EFA); assay: MIC, two-fold agar dilution (CLSI), clinical isolates
Method in brief: (§1)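 Susceptibility was tested using CLSI two-fold agar dilution against the strains examined.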

[2] = test system: Enterococcus faecium (EFM); assay: as above
Method in brief: as §1

[3] = test system: Escherichia coli (including ESBLs, non-ESBLs); assay: as above
Method in brief: as §1

[4] = test system: Moraxella catarrhalis (BCA); assay: as above
Method in brief: as §1

[5] = test system: Streptococcus pneoumoniae (SPN); assay: as above
Method in brief: as §1

[6] = test system: methicillin-resistant Staphylococcus aureus (MRSA); assay: as above
Method in brief: as §1

[7] = test system: methicillin-resistant Staphylococcus epidermidis (MRSE); assay: as above
Method in brief: as §1

[8] = test system: methicillin-sensitive Staphylococcus aureus (MSSA); assay: as above
Method in brief: as §1

[9] = test system: methicillin-sensitive Staphylococcus epidermidis (MSSE); assay: as above
Method in brief: as §1

[10] = test system: HCT-116 colorectal cancer cell line; assay: CCK-8 proliferation inhibition; details: Homo sapiens, HCT-116, 72 h, concentration of 30 μM, 72 hours, CCK-8
Method in brief: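 2000 cells/well, McCoy's 5A + 10% newborn bovine serum; overnight attach, 37° C./5% CO2. Cpd from DMSO stock diluted in medium, 72 h. Readout: CCK-8 (1:10). Ctrl 1‰ DMSO.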

[11] = test system: A549 lung cancer cell line; assay: CCK-8 proliferation inhibition; details: Homo sapiens, A549, 72 h, concentration of 30 μM
Text: (§2) 2. The present invention adopts the CCK-8 method to determine the proliferation inhibition effect of the spiro three-membered ring, spiro five-membered ring peptide deformylase inhibitor as described in Examples 1-80 against colorectal cancer cells, lung cancer cells, gastric cancer cells, liver cancer cells, and the like. […] The compound having the best activity synthesized in Example 64 was further tested for its inhibitory activity against other tumor cells including T cell leukemia, acute myeloid leukemia, cervical cancer, breast cancer, prostate cancer and osteosarcoma, and the like (see Table 7).
(§3) (1) HCT-116 colorectal cancer cell line, A549 lung cancer cell line, MGC-803 gastric cancer cell line, BEL-7402 liver cancer cell line, Jurkat T cell leukemia cell line, HL60 acute myeloid leukemia cell line, Hela cervical cancer cell line, MCF-7 breast cancer cell line, PC3 prostate cancer cell line and SAOS-2 osteosarcoma cell line were made into single cell suspension, 180 μL of which was inoculated into 96-well culture plate, which was cultured overnight in CO2 incubator (37° C., 5% CO2, 95% air).
(§4) (2) Each of the spiro three-membered ring, spiro five membered ring peptide deformylase inhibitors was dissolved in DMSO, and was further formulated into drug solution with required different final concentration using corresponding cell culture medium. The drug solutions were added to the above cells respectively (20 μL/well), with the control group added with 1‰ DMSO, and cultured in a CO2 incubator for 72 hours.
(§5) (3) After incubation for 72 hours, the culture solution was decanted, and 100 μL of 1:10 diluted CCK-8 solution was added.
(§6) Wherein, in step (1), the concentration of the single cell suspension was 2000 cells/well.
(§7) Wherein, in step (2), HCT-116 cells were cultured in McCoy's 5A medium (containing 10% newborn bovine serum, 1% double antibody); A549 and PC3 cells were cultured in F12 medium (containing 10% newborn bovine serum, 1% double antibody); MGC-803, BEL-7402, SAOS-2, Jurkat and HL60 cells were cultured in 1640 medium (containing 10% newborn bovine serum, 1% double antibody); and MCF-7 and Hela cells were cultured in DMEM high glucose medium (containing 10% newborn bovine serum, 1% double antibody).

[12] = test system: BEL-7402 liver cancer cell line; assay: CCK-8 proliferation inhibition; details: concentration of 30 μM
Text: as §2, §3, §4, §5, §6, §7

[13] = test system: MGC-803 gastric cancer cell line; assay: CCK-8 proliferation inhibition; details: Homo sapiens, MGC-803, 72 h, concentration of 30 μM
Text: as §2, §3, §4, §5, §6, §7

**Q.** How did the MIC (anti-bacterial activity) ([1]; strain EFA 15-1) turn out when `O=CN(O)C[C@@H](CC1CCCC1)C(=O)N1CC2(CC2)C[C@H]1C(=O)Nc1ccc(N2CCOCC2)cc1` [Example 25, (S)-5-((R)-3-cyclopentyl-2-((N-hydroxyformamido)methyl)propionyl)-N-(4-morpholinophenyl)-5-spiro[2.4]heptane-6-carboxamide] was run?
**A.** 2 µg/mL (≈ 4.01 µM)

**Q.** What about the MIC (anti-bacterial activity) ([1]; strain EFA 15-2) of the same molecule?
**A.** 2 µg/mL (≈ 4.01 µM)

**Q.** What about the MIC (anti-bacterial activity) ([1]; strain EFA 15-3) of the same molecule?
**A.** 0.5 µg/mL (≈ 1 µM)

**Q.** And the MIC (anti-bacterial activity) ([1]; strain EFA 15-4)?
**A.** 2 µg/mL (≈ 4.01 µM)

**Q.** And the MIC (anti-bacterial activity) ([1]; strain EFA 15-5)?
**A.** 2 µg/mL (≈ 4.01 µM)

**Q.** What about the MIC (anti-bacterial activity) ([1]; strain EFA 15-6) of the same molecule?
**A.** 2 µg/mL (≈ 4.01 µM)

**Q.** And the MIC (anti-bacterial activity) ([1]; strain EFA 15-9)?
**A.** 2 µg/mL (≈ 4.01 µM)

**Q.** And the MIC (anti-bacterial activity) ([2]; strain EFM 15-1)?
**A.** 1 µg/mL (≈ 2.01 µM)

**Q.** And the MIC (anti-bacterial activity) ([2]; strain EFM 15-2)?
**A.** 0.5 µg/mL (≈ 1 µM)

**Q.** What about the MIC (anti-bacterial activity) ([2]; strain EFM 15-3) of the same molecule?
**A.** 0.5 µg/mL (≈ 1 µM)

**Q.** And the MIC (anti-bacterial activity) ([2]; strain EFM 15-4)?
**A.** 0.25 µg/mL (≈ 0.501 µM)

**Q.** And the MIC (anti-bacterial activity) ([2]; strain EFM 15-5)?
**A.** 0.5 µg/mL (≈ 1 µM)

**Q.** And the MIC (anti-bacterial activity) ([2]; strain EFM 15-6)?
**A.** 1 µg/mL (≈ 2.01 µM)

**Q.** What about the MIC (anti-bacterial activity) ([3]; strain ECO+ 15-1) of the same molecule?
**A.** 32 µg/mL (≈ 64.2 µM)

**Q.** And the MIC (anti-bacterial activity) ([3]; strain ECO+ 15-2)?
**A.** > 32 µg/mL

**Q.** What about the MIC (anti-bacterial activity) ([3]; strain ECO+ 15-3) of the same molecule?
**A.** > 32 µg/mL

**Q.** And the MIC (anti-bacterial activity) ([3]; strain ECO+ 15-4)?
**A.** > 32 µg/mL

**Q.** And the MIC (anti-bacterial activity) ([3]; strain ECO− 15-1)?
**A.** > 32 µg/mL

**Q.** What about the MIC (anti-bacterial activity) ([3]; strain ECO− 15-2) of the same molecule?
**A.** > 32 µg/mL

**Q.** And the MIC (anti-bacterial activity) ([3]; strain ECO− 15-3)?
**A.** > 32 µg/mL

**Q.** What about the MIC (anti-bacterial activity) ([3]; strain ECO− 15-4) of the same molecule?
**A.** > 32 µg/mL

**Q.** And the MIC (anti-bacterial activity) ([4]; strain BCA 14-1)?
**A.** 0.5 µg/mL (≈ 1 µM)

**Q.** And the MIC (anti-bacterial activity) ([4]; strain BCA 14-4)?
**A.** 0.25 µg/mL (≈ 0.501 µM)

**Q.** What about the MIC (anti-bacterial activity) ([4]; strain BCA 14-5) of the same molecule?
**A.** 0.5 µg/mL (≈ 1 µM)

**Q.** What about the MIC (anti-bacterial activity) ([4]; strain BCA 14-6) of the same molecule?
**A.** 1 µg/mL (≈ 2.01 µM)

**Q.** And the MIC (anti-bacterial activity) ([4]; strain BCA 14-7)?
**A.** 0.25 µg/mL (≈ 0.501 µM)

**Q.** And the MIC (anti-bacterial activity) ([4]; strain BCA 14-8)?
**A.** 0.25 µg/mL (≈ 0.501 µM)

**Q.** And the MIC (anti-bacterial activity) ([4]; strain BCA 14-10)?
**A.** 0.25 µg/mL (≈ 0.501 µM)

**Q.** What about the MIC (anti-bacterial activity) ([5]; strain SPN 16-2) of the same molecule?
**A.** 0.5 µg/mL (≈ 1 µM)

**Q.** What about the MIC (anti-bacterial activity) ([5]; strain SPN 16-4) of the same molecule?
**A.** 2 µg/mL (≈ 4.01 µM)

**Q.** And the MIC (anti-bacterial activity) ([6]; strain MRSA 15-1)?
**A.** 0.25 µg/mL (≈ 0.501 µM)

**Q.** What about the MIC (anti-bacterial activity) ([6]; strain MRSA 15-2) of the same molecule?
**A.** 0.25 µg/mL (≈ 0.501 µM)

**Q.** What about the MIC (anti-bacterial activity) ([6]; strain MRSA 15-3) of the same molecule?
**A.** 0.25 µg/mL (≈ 0.501 µM)

**Q.** And the MIC (anti-bacterial activity) ([6]; strain MRSA 15-4)?
**A.** 0.25 µg/mL (≈ 0.501 µM)

**Q.** What about the MIC (anti-bacterial activity) ([7]; strain MRSE 15-1) of the same molecule?
**A.** 0.06 µg/mL (≈ 0.12 µM)

**Q.** What about the MIC (anti-bacterial activity) ([7]; strain MRSE 15-2) of the same molecule?
**A.** 0.25 µg/mL (≈ 0.501 µM)

**Q.** And the MIC (anti-bacterial activity) ([7]; strain MRSE 15-3)?
**A.** 0.25 µg/mL (≈ 0.501 µM)

**Q.** And the MIC (anti-bacterial activity) ([7]; strain MRSE 15-7)?
**A.** 0.25 µg/mL (≈ 0.501 µM)

**Q.** And the MIC (anti-bacterial activity) ([8]; strain MSSA 15-3)?
**A.** 0.25 µg/mL (≈ 0.501 µM)

**Q.** And the MIC (anti-bacterial activity) ([8]; strain MSSA 15-4)?
**A.** 0.25 µg/mL (≈ 0.501 µM)

**Q.** And the MIC (anti-bacterial activity) ([8]; strain MSSA 15-5)?
**A.** 0.25 µg/mL (≈ 0.501 µM)

**Q.** And the MIC (anti-bacterial activity) ([8]; strain MSSA 15-6)?
**A.** 0.25 µg/mL (≈ 0.501 µM)

**Q.** What about the MIC (anti-bacterial activity) ([9]; strain MSSE 15-3) of the same molecule?
**A.** 0.25 µg/mL (≈ 0.501 µM)

**Q.** What about the MIC (anti-bacterial activity) ([9]; strain MSSE 15-4) of the same molecule?
**A.** 0.25 µg/mL (≈ 0.501 µM)

**Q.** What about the MIC (anti-bacterial activity) ([9]; strain MSSE 15-5) of the same molecule?
**A.** 0.25 µg/mL (≈ 0.501 µM)

**Q.** What about the MIC (anti-bacterial activity) ([9]; strain MSSE 15-6) of the same molecule?
**A.** 0.25 µg/mL (≈ 0.501 µM)

**Q.** And the inhibition at 30 µM ([10]; Table 5, read-out: Inhibition of proliferation, Colorectal cancer HCT116)?
**A.** ≥ 30%

**Q.** What about the inhibition at 30 µM ([10]; read-out: HCT116 inhibition rate/%) of the same molecule?
**A.** 35%

**Q.** And the inhibition at 30 µM [11]?
**A.** 30%

**Q.** And the inhibition at 30 µM ([12]; Homo sapiens, Bel-7402, 72 h)?
**A.** > 50%

**Q.** And the “Inhibition of proliferation, Liver cancer BEL-7402” value ([12]; 72 hours, 30 µM)?
**A.** 65%

**Q.** What about the inhibition at 30 µM [13] of the same molecule?
**A.** 27%
